Measured values taken from patent US9133183B2, “Imidazolidinones and analogs exhibiting anti-cancer and anti-proliferative activities” (Deciphera Pharmaceuticals, LLC, priority 2013, dated 2015).
Like-named read-outs stand apart in the source and are kept apart here.

Experiments:
[1] = target: unphosphorylated c-FMS kinase (uFMS, Seq. ID no. 1) (Homo sapiens (Human), UniProt P07333); experiment: uFMS kinase assay (ADP production coupled to pyruvate kinase/lactate dehydrogenase); format: biochemical; details: enzymatic assay, ATP 500 μM
Chain of unphosphorylated c-FMS kinase (uFMS, Seq. ID no. 1) (P07333 538-972): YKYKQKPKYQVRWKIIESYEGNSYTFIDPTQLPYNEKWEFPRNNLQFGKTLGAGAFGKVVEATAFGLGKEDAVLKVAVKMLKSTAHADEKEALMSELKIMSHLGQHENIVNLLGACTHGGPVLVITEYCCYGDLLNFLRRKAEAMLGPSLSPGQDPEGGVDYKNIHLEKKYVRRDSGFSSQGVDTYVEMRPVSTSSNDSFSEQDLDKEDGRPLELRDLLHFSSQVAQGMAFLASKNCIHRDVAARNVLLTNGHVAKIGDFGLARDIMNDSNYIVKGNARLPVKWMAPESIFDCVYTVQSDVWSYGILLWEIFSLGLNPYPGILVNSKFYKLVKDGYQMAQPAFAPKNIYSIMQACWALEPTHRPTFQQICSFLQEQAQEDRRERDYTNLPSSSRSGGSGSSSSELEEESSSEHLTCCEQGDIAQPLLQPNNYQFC
Experimental: uFMS kinase (Seq. ID No. 1) Assay
In this assay, the oxidation of NADH (thus the decrease at A340 nm) was continuously monitored spectrophometrically. The reaction mixture (100 μL) contained FMS (purchased from Millipore) (10 nM), polyE4Y (1 mg/mL), MgCl2 (10 mM), pyruvate kinase (4 units), lactate dehydrogenase (0.7 units), phosphoenol pyruvate (1 mM), NADH (0.28 mM) and ATP (500 μM) in 90 mM Tris buffer containing 0.2% octyl-glucoside and 1% DMSO, pH 7.5. The inhibition reaction was started by mixing serial diluted test compound with the above reaction mixture. The absorption at 340 nm was monitored continuously for 4 hours at 30° C. on Synergy 2 plate reader. The reaction rate was calculated using the 3 to 4 h time frame. Percent inhibition was obtained by comparison of reaction rate with that of a control (i.e., in the absence of test compound). IC50 values were calculated from a series of percent inhibition values determined at a range of inhibitor concentrations using software routines as implemented in the GraphPad Prism software package.
uFMS Kinase Sequence (Y538-End) Used for Screening (Seq. ID No. 1)

[2] = target: unphosphorylated c-KIT kinase (uKIT, Seq. ID no. 2) (Homo sapiens (Human), UniProt P10721); experiment: uKit kinase assay (coupled pyruvate kinase/lactate dehydrogenase); format: biochemical; details: enzymatic assay, ATP 2000 μM
Chain of unphosphorylated c-KIT kinase (uKIT, Seq. ID no. 2) (P10721 other isoform, or with tags, fused parts or gaps): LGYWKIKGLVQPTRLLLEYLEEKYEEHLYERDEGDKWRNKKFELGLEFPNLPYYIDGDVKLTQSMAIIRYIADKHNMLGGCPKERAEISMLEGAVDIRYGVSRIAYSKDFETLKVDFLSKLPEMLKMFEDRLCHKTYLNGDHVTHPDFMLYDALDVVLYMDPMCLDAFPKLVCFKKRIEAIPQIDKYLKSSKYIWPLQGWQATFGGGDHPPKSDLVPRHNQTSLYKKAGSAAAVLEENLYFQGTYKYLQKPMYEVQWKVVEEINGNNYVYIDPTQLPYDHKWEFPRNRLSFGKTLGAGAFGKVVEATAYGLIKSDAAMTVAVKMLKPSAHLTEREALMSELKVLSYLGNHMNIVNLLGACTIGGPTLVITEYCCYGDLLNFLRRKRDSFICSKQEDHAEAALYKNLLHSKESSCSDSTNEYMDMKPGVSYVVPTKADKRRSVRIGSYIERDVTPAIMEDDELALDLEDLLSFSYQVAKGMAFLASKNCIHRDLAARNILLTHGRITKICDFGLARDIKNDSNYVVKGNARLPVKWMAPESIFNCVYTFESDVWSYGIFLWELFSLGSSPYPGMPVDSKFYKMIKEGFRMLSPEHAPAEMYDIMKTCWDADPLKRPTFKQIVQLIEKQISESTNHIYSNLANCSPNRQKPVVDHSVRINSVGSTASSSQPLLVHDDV
Experimental: uKit Kinase (Seq. ID No. 2) Assay
Activity of unphosphorylated c-KIT kinase (uKIT, Seq. ID no. 2) was determined by following the production of ADP from the KIT kinase reaction with ATP and poly E4Y as substrates through coupling with the pyruvate kinase/lactate dehydrogenase system (e.g., Schindler et al. Science (2000) 289: 1938-1942). In this assay, the oxidation of NADH (thus the decrease at A340 nm) was continuously monitored spectrophometrically. The reaction mixture (100 μl) contained unphosphorylated KIT (12 nM), polyE4Y (1 mg/mL), MgCl2 (10 mM), pyruvate kinase (4 units), lactate dehydrogenase (0.7 units), phosphoenol pyruvate (1 mM), and NADH (0.28 mM) and ATP (2000 μM) in 90 mM Tris buffer containing 0.2% octyl-glucoside and 1% DMSO, pH 7.5. The inhibition reaction was started by mixing serial diluted test compound with the above reaction mixture. The absorption at 340 nm was monitored continuously for 4 hours at 30° C. on Synergy 2 plate reader (BioTech). Reaction rates around 3 to 4 h time frame were used to calculate % inhibitions, from which IC50 values were generated.
uKit with N-Terminal GST Fusion Used for Screening (Seq ID No. 2)

[3] = test system: M-NFS-60 cells; experiment: M-NFS-60 cell proliferation assay (resazurin); format: cell-based; details: 67 h incubation
Experimental: M-NFS-60 cells (catalog #CRL-1838) were obtained from the American Type Culture Collection (ATCC, Manassas, Va.). Briefly, cells were grown in suspension in RPMI 1640 medium supplemented with 10% characterized fetal bovine serum (Invitrogen, Carlsbad, Calif.), 0.05 mM 2-mercaptoethanol, and 20 ng/mL mouse recombinant macrophage colony stimulating factor (M-CSF) at 37° C., 5% CO2, and 95% humidity. Cells were allowed to expand until reaching saturation at which point they were subcultured or harvested for assay use.
M-NFS-60 Cell Proliferation Assay
A serial dilution of test compound was dispensed into a 384-well black clear bottom plate (Corning, Corning, N.Y.). Two thousand five hundred cells were added per well in 50 μL complete growth medium. Plates were incubated for 67 h at 37° C., 5% CO2, and 95% humidity. At the end of the incubation period 10 μL of a 440 μM solution of resazurin (Sigma, St. Louis, Mo.) in PBS was added to each well and incubated for an additional 5 h at 37° C., 5% CO2, and 95% humidity. Plates were read on a Synergy2 reader (Biotek, Winooski, Vt.) using an excitation of 540 nm and an emission of 600 nm. IC50 values were calculated from a series of percent inhibition values determined at a range of inhibitor concentrations using software routines as implemented in the GraphPad Prism software package.

[4] = test system: osteoclast precursors; experiment: Osteoclast tartrate-resistant acid phosphatase assay; format: cell-based; details: Osteoclast, 7-14 days, RANKL and M-CSF
Experimental: Osteoclast Tartrate-Resistant Acid Phosphatase Assay
A serial dilution of test compound was dispensed into a 384-well black clear bottom plate (Nalge Nunc International, Rochester, N.Y.). Compound was diluted by the addition of DMEM media supplemented with 10% characterized fetal bovine serum (Invitrogen, Carlsbad, Calif.). Diluted compound was transferred to a 384-well black clear bottom plate. Two-thousand five hundred osteoclast precursors (Lonza, Walkersville, Md.) were added per well in growth media containing Receptor Activator of Nuclear Factor Kappa-beta ligand (RANKL) and M-CSF (R&D Systems, Minneapolis, Minn.). Plates were incubated for 7-14 days at 37 degrees Celsius, 5% CO2, and 95% humidity to allow differentiation of osteoclast precursors. At the end of the incubation period, 10 μL of supernatant from each well was transferred to a clear 384-well plate. Tartrate-resistant acid phosphatase activity in the supernatant samples was determined using an acid phosphatase assay kit (Sigma, St. Louis, Mo.). Absorbance was measured at 550 nm using a plate reader. Data was analyzed using Prism software (Graphpad, San Diego, Calif.) to calculate IC50 values.

Structure (SMILES) | IC50 ([1]; read-out: uFMS) [nM] | IC50 [2] [nM] | IC50 [3] [nM] | IC50 [4] [nM] | IC50 ([1]; uFMS) [nM]
Cc1ncc(-c2cc(Oc3ccc(NC(=O)N4CCN(C5CCOCC5)C4=O)nc3C)ccn2)s1 [Example 66, N-(6-methyl-5-((2-(2-methylthiazol-5-yl)pyridin-4-yl)oxy)pyridin-2-yl)-2-oxo-3-(tetrahydro-2H-pyran-4-yl)imidazolidine-1-carboxamide] | 10 to 100 | 100 to 1000 | 100 to 1000 | 100 to 1000 | –
COC[C@H](C)N1CCN(C(=O)Nc2ccc(Oc3ccnc(-c4cnn(C)c4)c3)c(C)n2)C1=O [Example 38, (S)-3-(1-methoxypropan-2-yl)-N-(6-methyl-5-((2-(1-methyl-1H-pyrazol-4-yl)pyridin-4-yl)oxy)pyridin-2-yl)-2-oxoimidazolidine-1-carboxamide] | – | < 10 | 10 to 100 | < 10 | 10 to 100
Cc1cn(-c2cc(Oc3ccc(NC(=O)N4CCN(C5CCOCC5)C4=O)nc3)ccn2)cn1 [Example 77, N-(5-((2-(4-methyl-11H-imidazol-1-yl)pyridin-4-yl)oxy)pyridin-2-yl)-2-oxo-3-(tetrahydro-2H-pyran-4-yl)imidazolidine-1-carboxamide] | 10 to 100 | 10 to 100 | 100 to 1000 | 100 to 1000 | –
COCCN1CCN(C(=O)Nc2ccc(Oc3ccnc(-c4cnc(C)s4)c3)c(C)n2)C1=O [Example 67, 3-(2-methoxyethyl)-N-(6-methyl-5-((2-(2-methylthiazol-5-yl)pyridin-4-yl)oxy)pyridin-2-yl)-2-oxoimidazolidine-1-carboxamide] | 100 to 1000 | > 1000 | 100 to 1000 | 100 to 1000 | –
COCCN1CCN(C(=O)Nc2ccc(Oc3ccnc(-c4cn(C)cn4)c3)c(C)n2)C1=O [Example 81, 3-(2-methoxyethyl)-N-(6-methyl-5-((2-(1-methyl-1H-imidazol-4-yl)pyridin-4-yl)oxy)pyridin-2-yl)-2-oxoimidazolidine-1-carboxamide] | 10 to 100 | > 1000 | 100 to 1000 | 100 to 1000 | –
CCN1CCN(C(=O)Nc2ccc(Oc3ccnc(-n4cnc(C)c4)c3)cn2)C1=O [Example 79, 3-ethyl-N-(5-((2-(4-methyl-1H-imidazol-1-yl)pyridin-4-yl)oxy)pyridin-2-yl)-2-oxoimidazolidine-1-carboxamide] | 100 to 1000 | 100 to 1000 | > 1000 | 100 to 1000 | –
CCc1nc(NC(=O)N2CCN(C3CCCC3)C2=O)ccc1Oc1ccnc(-c2cnc(C)s2)c1 [Example 78, 3-cyclopentyl-N-(6-ethyl-5-((2-(2-methylthiazol-5-yl)pyridin-4-yl)oxy)pyridin-2-yl)-2-oxoimidazolidine-1-carboxamide] | 10 to 100 | > 1000 | > 1000 | 100 to 1000 | –
CCN1CCN(C(=O)Nc2ccc(Oc3ccnc(-c4cn(C)cn4)c3)cn2)C1=O [Example 82, 3-ethyl-N-(5-((2-(1-methyl-1H-imidazol-4-yl)pyridin-4-yl)oxy)pyridin-2-yl)-2-oxoimidazolidine-1-carboxamide] | 10 to 100 | < 10 | 10 to 100 | 10 to 100 | –
Cc1ncc(-c2cc(Oc3ccc(NC(=O)N4CCN(C5CC5)C4=O)nc3C)ccn2)s1 [Example 65, 3-cyclopropyl-N-(6-methyl-5-((2-(2-methylthiazol-5-yl)pyridin-4-yl)oxy)pyridin-2-yl)-2-oxoimidazolidine-1-carboxamide] | 10 to 100 | 100 to 1000 | 100 to 1000 | 10 to 100 | –
CCc1nc(NC(=O)N2CCN(C3CCOCC3)C2=O)ccc1Oc1ccnc(-c2ccc(C)nc2)c1 [Example 63, N-(6-ethyl-5-((6′-methyl-[2,3′-bipyridin]-4-yl)oxy)pyridin-2-yl)-2-oxo-3-(tetrahydro-2H-pyran-4-yl)imidazolidine-1-carboxamide] | 100 to 1000 | > 1000 | > 1000 | > 1000 | –
